From patent US8129532B2, “Amino(oligo)thiophene dyes, preparation thereof, and optical methods of use” (The University of Connecticut, priority 2007, dated 2012)

Experiments:
[1] = system: layer V pyramidal neurons; assay: Voltage-sensitive dye imaging of action potentials in intracellularly stained pyramidal neurons in brain slices; format: cell-based, Sprague Dawley rats; settings: for AP-associated optical signal, single example (base line-to-peak): FIG. 11, basal dendrite
Description: Sprague Dawley rats (P21-42) were anesthetized with isoflurane, decapitated, and the brains were removed with the head immersed in ice-cold, artificial cerebrospinal fluid (ACSF), according to an animal protocol approved by the Center for Laboratory Animal Care, University of Connecticut. Brain slices (300 μm) were cut from frontal lobes in the coronal plane. ACSF contained (in mM) 125 NaCl, 26 NaHCO3, 10 glucose, 2.3 KCl, 1.26 KH2PO4, 2 CaCl2 and 1 MgSO4, pH 7.4. Whole-cell recordings were made from visually identified layer V pyramidal neurons on the medial part of the slice. Intracellular solution contained (in mM) 135 K-gluconate, 2 MgCl2, 3 Na2-ATP, 10 Na2-phosphocreatine, 0.3 Na2-GTP and 10 Hepes (pH 7.3, adjusted with KOH). Electrical signals were amplified with Multiclamp 700A and digitized with two input boards: (1) Digidata Series 1322A (Axon Instruments) at 5 kHz, and (2) Neuroplex (RedShirtImaging) at 2.7 kHz sampling rate. Only cells with a membrane potential more hyperpolarized than −50 mV, and action potential amplitudes exceeding 80 mV (measured from the base line) were included in this study. All experiments were performed on layer 5 cortical pyramidal cells at 34° C.
Blue dyes were stored in ethanol stock solution at −20° C. On the day of the recording blue dyes were dissolved in standard K-gluconate based intracellular solution. A loading pipette was filled with two varieties of the same intracellular solution; one with and one without dye. Dye-free solution was occupying the very tip of the pipette, while the back of the pipette lumen was microloaded with dye-rich solution. The purpose of dye-free solution in the tip of the patch pipette was to prevent dye-leak during the maneuver through brain slice tissue. VSD styryl dyes are lipophilic and bind indiscriminately and irreversibly to all membranes around the neuron of interest. Even a small amount of dye that leaks out of the pipette during the formation of the gigaohm seal, can generate strong fluorescent background. Fluorescent light emanating from surrounding tissue has a devastating effect on dendritic optical signals. Elimination of the background fluorescence is critical for dendritic voltage imaging. How much dye-free solution one should put in the tip depends on time period between the submersion of the patch pipette into the recording chamber and formation of the gigaohm seal. The faster one can perform this maneuver the less dye-free solution she needs to achieve optimal staining.
Blue VSD were injected at room temperature for 25-60 minutes. The filling pipette was carefully pulled out (outside-out patch) and brain slices were left to incubate for 20-120 minutes at room temperature. Just before optical recordings the cells were re-patched with dye-free pipette at the physiological temperature (34° C.).
Voltage-sensitive dye imaging was performed on a Zeiss Axioskope 2FS microscope equipped with NeuroCCD camera (RedShirtImaging). We used Zeiss 40× objective IR-Achroplan 0.80 W. The size of the square visual field captured by NeuroCCD camera was 384×384 um. In the place of the arc lamp (normally used for epi-illumination), we inserted a 200 μm fiber optic guide with a collimator. Laser beam was focused on the other side of the fiber optic guide using a microscope objective-like lens. This arrangement produced a motionless spot of laser light (˜25 μm in diameter) at the object plane. An illuminated section of the brain slice, projected onto the NeuroCCD camera, covered approximately 25 pixels when used with 40× objective lens. At this magnification, one pixel sampled a 4.8×4.8 square in the object plane. A region of interest (ROI) was brought into the laser spot using X-Y microscope platform. The laser beam was interrupted by an electro-programmable shutter (Uniblitz®). Attention was made to limit the exposure time during the recording and positioning of the neuron.

[2] = One-photon absorption and emission spectra in multilamellar lipid vesicles, water and ethanol; format: physicochemical; settings: for Absorbance MLV / Emission MLV: multilamellar lipid vesicles
Description: […] The column indicating relative signal change for one-photon fluorescence also lists the excitation light source used and the lower bounds of the long-pass emission detected.
Absorption and emission spectra were obtained for a series of dyes with different acceptors: pyridinium (PY-1261), quinolinium (PY-212), and acridinium (PY-2240).

[3] = system: layer V pyramidal neurons; assay: Toxicity / photodynamic damage: AP half-width during optical recording
Description: S. Antic, G. Major, D. Zecevic, “Fast optical recordings of membrane potential changes from dendrites of pyramidal neurons”, Journal of Neurophysiology, 82, 1615-1621 (1999). Accumulation of reactive oxygen species (free radicals), which interact with and damage neuronal plasmalemma, is the most likely mechanism. J. B. Feix, B. Kalyanaraman, “Production of singlet oxygen-derived hydroxyl radical adducts during merocyanine-540-mediated photosensitization: analysis by ESR-spin trapping and HPLC with electrochemical detection”, Archives of Biochemistry & Biophysics, volume 291, pages 43-51 (1991). High intensity illumination during optical recording sessions excites large number of membrane bound dye molecules. Since styryl dyes have tendency to penetrate deep into the lipid bilayers (E. Fluhler, V. G. Burnham, L. M. Loew, “Spectra, membrane binding, and potentiometric responses of new charge shift probes”, Biochemistry, 24, 5749-5755 (1985)), free radicals are produced literally inside the neuronal membrane. […] S. D. Antic, “Action potentials in basal and oblique dendrites of rat neocortical pyramidal neurons”, Journal of Physiology 550, 35-50 (2003). […] Since dye loading was always done at room temperature (21° C.) and re-patching at 34° C., we could not compare AP shape and size before and after dye loading. Therefore, in order to check the extent of dye toxicity we designed a group of experiments in which neurons were injected and incubated at 34° C. During the dye injection (loading phase), in regular time intervals (3-5 min) direct current pulses was used to slowly charge the membrane and trigger an AP (FIG. 14A). Identical current pulse was then applied at the end of dye loading phase, just before the electrode pull-out (FIG. 14B) and after the 50-90 min incubation period (FIG. 14C, re-patch). […] To avoid AP jitter in optical recordings we used shorter and stronger current pulses (FIG. 14D, E, F, insets). However, from time to time we returned to AP-testing current injection protocol (FIG. 14D, E), while keeping the count on the number of cumulative high-intensity light exposures (# sweeps). […] Additional experimental details can be found in Ping Yan, Aifang Xie, Meide Wei, and Leslie M. Loew, “Amino(oligo)thiophene-Based Environmentally Sensitive Biomembrane Chromophores”, Journal of Organic Chemistry, published on web Jul. 30, 2008.

[4] = system: NIE-115 mouse neuroblastoma; assay: SHG and 2PF voltage sensitivity, 50 mV step, slow switching protocol on patch-clamped neuroblastoma cell; format: cell-based; settings: comparator named in the sentence (PY-1266; PY-1268)
Description: For full details of our non-linear imaging microscope, we refer the reader to previously published descriptions. A. C. Millard, P. J. Campagnola, W. Mohler, A. Lewis, and L. M. Loew, “Second Harmonic Imaging Microscopy,” Meth. Enzymol. 361, 47-69 (2003); Millard, A. C., L. Jin, and L. M. Loew, “Second Harmonic Generation Imaging Microscopy with a High Power Ultrafast Fiber Laser,”Commercial and Biomedical Applications of Ultrafast Lasers. 5714-5716, 92-98 (2005); A. C. Millard, L. Jin, M.-D. Wei, J. P. Wuskell, A. Lewis, and L. M. Loew, “Sensitivity of Second Harmonic Generation from Styryl Dyes to Transmembrane Potential,” Biophys. J. 86, 1169-1176 (2004). Our current microscope combines a Fluoview (Olympus) scan-head and an Axiovert (Zeiss) inverted microscope constructed for multiple imaging methodologies including wide-field, one-photon excitation fluorescence imaging, as well as SHG and 2PF imaging. Our laser sources include a Mira (Coherent) Ti:sapphire laser and a Femtopower (Fianium) fiber laser operating at 1064 nm. […] Fluorescence is imaged (for linear imaging) or collected (for non-linear imaging) back through the excitation objective, while SHG is collected in the forward, transmitted light direction by a condenser, either 0.8 NA or 0.55 NA (Zeiss). […]

[5] = system: NIE-115 mouse neuroblastoma; assay: Time-dependence (kinetics) of SHG and 2PF signal change after voltage-clamp step; format: cell-based; settings: time resolution 5 ms
Description: For full details of our non-linear imaging microscope, we refer the reader to previously published descriptions. A. C. Millard, P. J. Campagnola, W. Mohler, A. Lewis, and L. M. Loew, “Second Harmonic Imaging Microscopy,” Meth. Enzymol. 361, 47-69 (2003); Millard, A. C., L. Jin, and L. M. Loew, “Second Harmonic Generation Imaging Microscopy with a High Power Ultrafast Fiber Laser,”Commercial and Biomedical Applications of Ultrafast Lasers. 5714-5716, 92-98 (2005); A. C. Millard, L. Jin, M.-D. Wei, J. P. Wuskell, A. Lewis, and L. M. Loew, “Sensitivity of Second Harmonic Generation from Styryl Dyes to Transmembrane Potential,” Biophys. J. 86, 1169-1176 (2004). Our current microscope combines a Fluoview (Olympus) scan-head and an Axiovert (Zeiss) inverted microscope constructed for multiple imaging methodologies including wide-field, one-photon excitation fluorescence imaging, as well as SHG and 2PF imaging. Our laser sources include a Mira (Coherent) Ti:sapphire laser and a Femtopower (Fianium) fiber laser operating at 1064 nm. Millard, A. C., L. Jin, and L. M. Loew, “Second Harmonic Generation Imaging Microscopy with a High Power Ultrafast Fiber Laser,”Commercial and Biomedical Applications of Ultrafast Lasers. 5714-5716, 92-98 (2005). For excitation, we routinely use an IR-Achroplan (Zeiss) 40×, 0.8 NA water-immersion objective though for shorter wavelengths we also use an A-Plan (Zeiss) 40×, 0.65 NA air objective. Fluorescence is imaged (for linear imaging) or collected (for non-linear imaging) back through the excitation objective, while SHG is collected in the forward, transmitted light direction by a condenser, either 0.8 NA or 0.55 NA (Zeiss). For optimal collection, the numerical aperture of the condenser should be at least 1/√2 of the numerical aperture of the excitation objective (L. Moreaux, O. Sandre, S. Charpak, M. Blanchard-Desce, and J. Mertz, “Coherent Scattering in Multi-Harmonic Light Microscopy,” Biophys. J. 80, 1568-1574 (2001); L. Moreaux, O. Sandre, and J. Mertz. “Membrane Imaging by Second Harmonic Generation Microscopy,” J. Opt. Soc. Am. B. 17, 1685-1694 (2000)), though in practice a condenser of slightly lower numerical aperture will often suffice. Since the wavelength of second harmonic light is precisely half that of the excitation light, the choice of filter for SHG imaging is greatly simplified and the primary concern is the blocking of the excitation light that is also transmitted through the sample as well as fluorescence that is emitted forwards.
NIE-115 mouse neuroblastoma were cultured in DMEM with 10% fetal bovine serum and 1% antibiotic-antimycotic (Invitrogen, Carlsbad, Calif.) in a 60 mm plastic dish (353002, Becton Dickinson, Franklin Lakes, N.J.). The culture was maintained at 37° C. with 5% CO2 for a period of 48 hours prior to experimentation.
For experimentation the growth medium was replaced with 3 mL of Earle's Balanced Salt Solution (EBSS, Sigma, St. Louis, Mo.) with 20 mM HEPES (Merck Biosciences AG, Laufelfingen, Switzerland). The internal buffer, injected into the patch pipette, was a potassium aspartate (140 mM, Sigma, St. Louis, Mo.), sodium chloride (5 mM, Sigma, St. Louis, Mo.) and HEPES (10 mM) solution at a pH of 7.35. The pH was adjusted with potassium hydroxide and hydrochloric acid.
For characterizing the voltage-sensitivity of SHG and 2PF, we used a slow (˜0.1 Hz) switching protocol as previously described (A. C. Millard, P. J. Campagnola, W. Mohler, A. Lewis, and L. M. Loew, “Second Harmonic Imaging Microscopy,” Meth. Enzymol. 361, 47-69 (2003); Millard, A. C., L. Jin, and L. M. Loew, “Second Harmonic Generation Imaging Microscopy with a High Power Ultrafast Fiber Laser,” Commercial and Biomedical Applications of Ultrafast Lasers. 5714-5716, 92-98 (2005); A. C. Millard, L. Jin, M.-D. Wei, J. P. Wuskell, A. Lewis, and L. M. Loew, “Sensitivity of Second Harmonic Generation from Styryl Dyes to Transmembrane Potential,” Biophys. J. 86, 1169-1176 (2004)) with a 50 mV step. […]

[6] = One-photon fluorescence relative signal change per 100 mV; settings: excitation / long-pass emission (nm) given
Description: The left-most data columns of Table 1 are the absorption and emission maxima for one photon fluorescence in soybean multi-lamellar lipid vesicles used to mimic the membrane environment. The column indicating relative signal change for one-photon fluorescence also lists the excitation light source used and the lower bounds of the long-pass emission detected.

[7] = one photon, soybean multi-lamellar lipid vesicles

CCN(CC)c1ccc2cc(/C=C/C=C/c3cc[n+](CCC[N+](C)(C)C)c4ccccc34)ccc2c1.[Br-].[Br-] [JPW-4090, Di-2-ANBDQPQ]
polarity of optical signal at 532 nm excitation [1]: positive signals
polarity of optical signal at 658 nm excitation [1]: positive signals
optical signal amplitude of blue dye relative to red dye JPW-3028 ([1]; FIG. 11): approximately 3 times
AP-associated optical signal, single example (base line-to-peak) [1]: 17 % ΔF/F
dF/F at 633 nm ([1]; backpropagating AP, basal dendrites 80-150 μm from soma, laser spot 633 nm, %): 12.70 ± 3.59%
dF/F at 658 nm ([1]; backpropagating AP, basal dendrites 80-150 μm from soma, laser spot 658 nm, %): 11.03 ± 2.24%
voltage sensitivity compared with red dye ([1]; basal dendrites 80-150 μm from soma): better sensitivity than red dye JPW-3028
S/N ratio at 633 nm ([1]; laser spot 633 nm): 5.48 ± 2.01
S/N ratio at 658 nm ([1]; laser spot 658 nm): 6.93±1.88
Absorbance ethanol [2]: 584 nm
Emission ethanol [2]: 812 nm
Absorbance MLV [2]: 526 nm
Emission MLV [2]: 702 nm
Absorbance water [2]: 490 nm
slope of linear fit, AP half-width versus cumulative sweeps ([3]; Sprague-Dawley, rat): 0.0003
sweeps recorded per session on average ([3]; Sprague-Dawley, rat): 114±67 sweeps
time since beginning of dye injection without AP broadening ([3]; Sprague-Dawley, rat): ≥ 192 min

Di-1-ANEPEQ [JPW-3028, reference compound]
AP-associated optical signal, single example (base line-to-peak) [1]: 5 % ΔF/F
S/N ratio at 532 nm ([1]; laser spot 532 nm): {at 532 nm = 5.95 ± 2.16}
Absorbance ethanol [2]: 511 nm
Emission ethanol [2]: 718 nm
Absorbance MLV [2]: 457 nm
Emission MLV [2]: 670 nm
Absorbance water [2]: 440 nm
slope of linear fit, AP half-width versus cumulative sweeps ([3]; FIG. 15A, 15C): 0.0027
sweeps recorded before AP half-width grew by more than 15% from control ([3]; n=12): 86±28 sweeps

CC[N+](CC)(CC)CCC[n+]1ccc(/C=C/c2ccc(-c3ccc(N(C)C)s3)s2)cc1 [PY-1282]
SHG signal sensitivity relative to another dye [4]: three-fold increase
1PF Abs. Max [2, 7]: 530 nm
1PF Em. Max [2, 7]: 676 nm
SHG Kinetics (exponential time constant) [5]: 16 ± 1 ms
1PF Change (ΔF/F-100 mv) [6]: 8.0E−002; 640/>715 ΔF/F-100 mv
